Reference: patent publication US9046516B2, “Immunoassay method, reagent kit for detecting alkaline phosphatase, and reagent kit for immunoassay” (SYSMEX CORPORATION, priority 2007, dated 2015)

System: endogenous ALP
Test: HBs antigen immunoassay with ALP label: luminescence intensity of samples, reduction of the influence of endogenous ALP
Type: biochemical
Conditions: particle dispersion with 2 mM levamisole
Procedure: In this example, the effect of the inhibitor of endogenous ALP contained in the particle dispersion prepared in (4) above on reduction of the influence of endogenous ALP was examined.
Specifically, the reagents prepared in (1) to (5) above were used and the luminescence intensities of HBs antigen-negative samples were measured. The measurement method is described below.
First, 25 μL sample was mixed with 30 μL of the HBs antibody reagent and then incubated at 42° C. for about 3 minutes, whereby an HBs antigen in the sample was reacted with the biotinylated HBs antibody in the HBs antibody reagent. Subsequently, 30 μL of the magnetic particle reagent was added to the mixture and then incubated for about 2 minutes, and a complex consisting of the HBs antigen and the biotinylated HBs antibody was immobilized on the ST magnetic particles. […] 50 μL of the particle dispersion was added to the ST magnetic particles from which the wash fluid had been removed, then the ST magnetic particles were dispersed in the particle dispersion, 100 μL of the substrate solution was added thereto, and the luminescence intensity of the sample was measured with LUMI-COUNTER 700 (Microtec Nichion). […]

**Q.** With `c1ccc([C@H]2CN3CCSC3=N2)cc1` [Levamisole, (−)-2,3,5,6-tetrahydro-6-phenylimidazo[1,2-b]thiazole] as the compound, how does the “With Levamisole (Luminescence Intensity, Counts)” value (negative control NC (0.1 M TEA buffer solution containing 5% BSA, pH 7.0)) read?
**A.** Its value is 705 Counts.

**Q.** What about the “With Levamisole (Luminescence Intensity, Counts)” value (positive control PC (HBs antigen-positive serum)) of the same compound?
**A.** Its value is 258759 Counts.
